# From ChEMBL document CHEMBL1201862, “PubChem BioAssay data set” (2004)
# Activity calls are given as the source filed them.
# What was measured:
# Major prion protein = Major prion protein (Homo sapiens, UniProt P04156); assay type: functional, cell-based
# [1] = target: 26S proteasome non-ATPase regulatory subunit 14 (Homo sapiens, UniProt O00487); assay: inhibition of proteasome subunit RPN11 – biochemical, fluorescence polarization, uHTS hits, confirmation (AID 602368); assay type: functional
# [2] = target: 72 kDa type IV collagenase (Homo sapiens, UniProt P08253); assay: Dose Response validation of uHTS RPN11 inhibitor hits using a MMP-2 Fluorescence assay.; assay type: functional
# Prothrombin = Prothrombin (Bos taurus, UniProt P00735); assay: thrombin inhibition, dose response, biochemical, fluorescence polarization, uHTS hits (AID 602369); assay type: functional
# Beta Lactamase = Beta Lactamase (Pseudomonas aeruginosa, UniProt Q932Y6); assay: beta-lactamase reporter inhibitor potency, dose response, artefact control for TLR9-MyD88 binding inhibitor project, BLA reporter cells, FRET fluorescence (AID 588341); assay type: cell-based;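 further: cell based assay in CHO-K1 cells stably expressing beta-lactamase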
# CHO = assay: cytotoxicity in TLR9-MyD88 CHO cells, dose response, cytotoxicity control for TLR9-MyD88 binding inhibitor project, cell-based, luminescence (AID 588339); assay type: functional, hamster; settings: Cricetulus griseus;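 further: CHO cells stably coexpressing TLR9 and MyD88 fusions from primary screen; compound exposure lasted 48 hours before viability readout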
# [3] = target: Apoptotic protease-activating factor 1 (Homo sapiens, UniProt O14727); assay type: functional
# [4] = target: T1, Rac GTPase-activating protein 1 (Homo sapiens, UniProt Q9H0H5); assay: MgcRacGAP GTPase-activating activity inhibitors, confirmation, biochemical, ADP Hunter fluorescence, primary and confirmatory (AID 624330); assay type: functional
# T1 sequence (Q9H0H5 whole entry): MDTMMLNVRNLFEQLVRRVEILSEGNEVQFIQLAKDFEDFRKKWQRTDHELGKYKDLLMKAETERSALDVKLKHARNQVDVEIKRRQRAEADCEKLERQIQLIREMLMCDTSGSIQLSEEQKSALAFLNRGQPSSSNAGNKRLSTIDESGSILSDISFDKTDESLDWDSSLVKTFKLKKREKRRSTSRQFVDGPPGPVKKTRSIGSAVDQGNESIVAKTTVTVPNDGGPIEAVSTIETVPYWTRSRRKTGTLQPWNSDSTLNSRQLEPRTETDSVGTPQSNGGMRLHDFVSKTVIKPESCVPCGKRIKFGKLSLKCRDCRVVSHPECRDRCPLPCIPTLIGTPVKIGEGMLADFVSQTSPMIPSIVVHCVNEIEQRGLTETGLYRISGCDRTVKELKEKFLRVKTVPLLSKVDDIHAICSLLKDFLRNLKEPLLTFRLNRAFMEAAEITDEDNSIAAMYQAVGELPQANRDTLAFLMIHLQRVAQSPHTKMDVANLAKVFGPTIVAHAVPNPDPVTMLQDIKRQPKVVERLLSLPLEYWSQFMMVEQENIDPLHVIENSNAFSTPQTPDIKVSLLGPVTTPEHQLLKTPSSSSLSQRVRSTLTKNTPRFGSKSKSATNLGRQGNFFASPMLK
# H9c2 = assay: cells; assay type: functional, cell-based; settings: Rattus norvegicus, H9c2, Myocardium;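 further: confirmatory concentration-response retest of ultra-high-throughput screening hits for modulation of myocardial damage; cell death induced by hydrogen peroxide oxidative stress; compound pretreatment for 60 min then peroxide exposure for 2 h; potency is for protecting the cells against peroxide damage rather than for killing them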
# [5] = target: T2, Sentrin-specific protease 8 (Homo sapiens, UniProt Q96LD8); assay: SENP8 protease inhibitors, SAR follow-up, biochemical, luminescence (AID 504501); assay type: functional
# T2 sequence (Q96LD8 whole entry): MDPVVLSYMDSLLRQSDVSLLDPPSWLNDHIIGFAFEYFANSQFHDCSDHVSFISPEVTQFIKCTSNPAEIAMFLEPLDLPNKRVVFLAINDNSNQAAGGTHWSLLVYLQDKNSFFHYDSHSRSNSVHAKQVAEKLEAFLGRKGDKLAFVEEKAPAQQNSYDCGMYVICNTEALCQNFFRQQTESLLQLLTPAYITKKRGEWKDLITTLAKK
# [6] = target: T3, Sentrin-specific protease 6 (Homo sapiens, UniProt Q9GZR1); assay: SAR Analysis of small molecule inhibitors of Sentrin-specific protease 6 (SENP6) using a Luminescent assay. [Related pubchem assays (depositor defined):AID2582, AID2599]; assay type: functional
# T3 sequence (Q9GZR1 whole entry): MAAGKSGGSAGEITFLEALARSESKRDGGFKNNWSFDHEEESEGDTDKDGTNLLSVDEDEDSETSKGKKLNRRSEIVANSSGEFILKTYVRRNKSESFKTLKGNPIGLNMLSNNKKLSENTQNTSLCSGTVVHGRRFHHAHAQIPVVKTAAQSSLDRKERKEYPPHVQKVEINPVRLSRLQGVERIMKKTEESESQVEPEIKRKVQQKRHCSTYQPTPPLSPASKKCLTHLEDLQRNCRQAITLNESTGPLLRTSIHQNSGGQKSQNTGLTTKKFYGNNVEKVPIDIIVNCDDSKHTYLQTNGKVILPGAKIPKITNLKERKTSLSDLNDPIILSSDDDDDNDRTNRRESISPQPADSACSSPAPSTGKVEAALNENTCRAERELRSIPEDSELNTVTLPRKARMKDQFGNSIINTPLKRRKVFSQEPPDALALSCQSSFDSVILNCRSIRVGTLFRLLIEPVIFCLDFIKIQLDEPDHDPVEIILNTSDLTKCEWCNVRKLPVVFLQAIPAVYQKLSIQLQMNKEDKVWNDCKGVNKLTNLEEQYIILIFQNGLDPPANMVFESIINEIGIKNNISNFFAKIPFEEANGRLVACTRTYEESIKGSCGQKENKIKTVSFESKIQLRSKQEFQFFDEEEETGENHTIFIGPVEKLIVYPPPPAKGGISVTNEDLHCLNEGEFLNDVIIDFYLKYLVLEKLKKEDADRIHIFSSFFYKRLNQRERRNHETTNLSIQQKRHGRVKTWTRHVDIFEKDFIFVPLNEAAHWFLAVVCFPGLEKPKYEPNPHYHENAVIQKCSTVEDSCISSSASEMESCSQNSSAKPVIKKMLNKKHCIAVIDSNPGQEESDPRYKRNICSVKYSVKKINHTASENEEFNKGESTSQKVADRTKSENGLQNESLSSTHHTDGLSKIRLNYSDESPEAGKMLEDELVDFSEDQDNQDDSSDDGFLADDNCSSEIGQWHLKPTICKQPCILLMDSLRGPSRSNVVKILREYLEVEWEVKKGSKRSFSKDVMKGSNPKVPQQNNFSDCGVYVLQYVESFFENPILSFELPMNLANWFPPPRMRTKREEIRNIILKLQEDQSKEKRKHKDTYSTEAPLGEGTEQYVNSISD
# Caspase-3 = target: T4, Caspase-3 (Homo sapiens, UniProt P42574); assay: SAR Analysis of small molecule inhibitors of Sentrin-specific proteases (SENPs) using a Caspase-3 Selectivity assay. [Related pubchem assays (depositor defined):AID2540, AID2599, AID434973, AID489001]; assay type: functional
# T4 sequence (P42574 whole entry): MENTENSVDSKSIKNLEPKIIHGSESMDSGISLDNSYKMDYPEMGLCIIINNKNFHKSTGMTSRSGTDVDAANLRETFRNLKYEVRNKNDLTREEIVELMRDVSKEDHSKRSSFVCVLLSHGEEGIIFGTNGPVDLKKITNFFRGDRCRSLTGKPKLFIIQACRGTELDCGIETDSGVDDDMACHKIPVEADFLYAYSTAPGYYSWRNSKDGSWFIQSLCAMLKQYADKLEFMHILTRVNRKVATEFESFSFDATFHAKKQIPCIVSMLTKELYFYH
# [7] = target: T5, Sentrin-specific protease 7 (Homo sapiens, UniProt Q9BQF6); assay: SENP7 protease inhibitors, SAR follow-up, biochemical, luminescence (AID 504497); assay type: functional
# T5 sequence (Q9BQF6 whole entry): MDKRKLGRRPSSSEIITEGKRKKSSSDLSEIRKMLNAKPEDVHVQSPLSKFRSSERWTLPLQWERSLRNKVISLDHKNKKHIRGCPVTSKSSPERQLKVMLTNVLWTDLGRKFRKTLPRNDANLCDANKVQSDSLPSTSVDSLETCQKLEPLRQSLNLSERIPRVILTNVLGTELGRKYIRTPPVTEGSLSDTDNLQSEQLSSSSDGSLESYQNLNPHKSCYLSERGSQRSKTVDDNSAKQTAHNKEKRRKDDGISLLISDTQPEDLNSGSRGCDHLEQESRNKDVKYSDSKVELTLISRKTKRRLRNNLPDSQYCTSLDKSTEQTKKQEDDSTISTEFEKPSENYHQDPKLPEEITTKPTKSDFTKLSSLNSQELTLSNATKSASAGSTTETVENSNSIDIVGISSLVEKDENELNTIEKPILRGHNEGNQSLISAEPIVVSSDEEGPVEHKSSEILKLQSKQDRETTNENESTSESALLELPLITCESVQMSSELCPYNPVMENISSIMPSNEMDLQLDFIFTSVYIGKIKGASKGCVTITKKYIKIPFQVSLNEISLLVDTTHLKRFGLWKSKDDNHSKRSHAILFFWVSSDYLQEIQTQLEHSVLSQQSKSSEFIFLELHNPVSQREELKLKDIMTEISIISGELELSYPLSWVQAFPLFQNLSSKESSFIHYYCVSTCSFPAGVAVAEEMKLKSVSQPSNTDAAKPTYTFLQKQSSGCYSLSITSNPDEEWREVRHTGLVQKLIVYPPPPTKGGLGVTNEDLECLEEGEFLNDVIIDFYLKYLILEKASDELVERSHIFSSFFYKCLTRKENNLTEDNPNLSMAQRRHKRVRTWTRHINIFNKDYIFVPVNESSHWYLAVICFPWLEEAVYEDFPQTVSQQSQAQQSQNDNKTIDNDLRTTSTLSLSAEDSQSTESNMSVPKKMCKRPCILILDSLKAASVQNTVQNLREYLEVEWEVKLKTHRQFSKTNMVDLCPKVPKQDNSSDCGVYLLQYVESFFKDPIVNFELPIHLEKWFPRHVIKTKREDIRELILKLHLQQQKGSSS
smiles,measurement,setting,value
Nc1nnc(SCc2nc(O)c3c(-c4ccccc4)csc3n2)s1,IC50,Major prion protein,12.2 µM (inactive)
same,IC50,cells,> 138 µM (inactive)
same,IC50,[1],28.9 µM (active)
same,IC50,[2],> 100 µM (inactive)
same,IC50,Prothrombin,30.8 µM (active)
COc1ccccc1N1N=C(c2cccs2)CC1c1ccccc1 (centres undefined),IC50,Beta Lactamase,3.62 µM (active)
same,IC50,CHO,> 49.7 µM (inactive)
COc1ccc(NCc2cc3cc(OC)ccc3nc2O)cc1,IC50,[3],62.5 µM (active)
same,IC50,[4],89.3 µM (active)
same,IC50,H9c2,> 79 µM (inactive)
CCc1ccc(-c2nc(/C=C/c3ccccc3)no2)cc1,IC50,[5],> 99 µM (inactive)
same,IC50,[6],> 99 µM (inactive)
same,IC50,Caspase-3,80 µM (active)
same,IC50,[7],46.5 µM (active)
